Reference: ChEMBL document CHEMBL2413064, “Synthesis and α-glucosidase inhibitory activity evaluation of N-substituted aminomethyl-β-d-glucopyranosides” (Bioorg Med Chem, 2013)
pIC50, pKi: −log10 of the molar value.

What was measured:
[1] = target: T1, Sucrase-isomaltase, intestinal (Rattus norvegicus, UniProt P23739); assay: Inhibition of rat intestinal sucrase using sucrose as substrate assessed as D-glucose release from substrate preincubated for 15 mins measured after 60 mins
Alpha-glucosidase MAL12 = Alpha-glucosidase MAL12 (Saccharomyces cerevisiae S288c, UniProt P53341); assay: Inhibition of Saccharomyces cerevisiae alpha-glucosidase assessed as 4-nitrophenol release from 4-nitrophenyl alpha-D-glucopyranoside preincubated for 15 mins measured after 15 mins
[2] = target: Maltase-glucoamylase, intestinal (Rattus norvegicus)
[3] = target: T1, Sucrase-isomaltase, intestinal; assay: Competitive inhibition of rat intestinal sucrase using sucrose as substrate by Lineweaver-Burk plot analysis

T1 sequence (P23739 1-1013 limits assumed): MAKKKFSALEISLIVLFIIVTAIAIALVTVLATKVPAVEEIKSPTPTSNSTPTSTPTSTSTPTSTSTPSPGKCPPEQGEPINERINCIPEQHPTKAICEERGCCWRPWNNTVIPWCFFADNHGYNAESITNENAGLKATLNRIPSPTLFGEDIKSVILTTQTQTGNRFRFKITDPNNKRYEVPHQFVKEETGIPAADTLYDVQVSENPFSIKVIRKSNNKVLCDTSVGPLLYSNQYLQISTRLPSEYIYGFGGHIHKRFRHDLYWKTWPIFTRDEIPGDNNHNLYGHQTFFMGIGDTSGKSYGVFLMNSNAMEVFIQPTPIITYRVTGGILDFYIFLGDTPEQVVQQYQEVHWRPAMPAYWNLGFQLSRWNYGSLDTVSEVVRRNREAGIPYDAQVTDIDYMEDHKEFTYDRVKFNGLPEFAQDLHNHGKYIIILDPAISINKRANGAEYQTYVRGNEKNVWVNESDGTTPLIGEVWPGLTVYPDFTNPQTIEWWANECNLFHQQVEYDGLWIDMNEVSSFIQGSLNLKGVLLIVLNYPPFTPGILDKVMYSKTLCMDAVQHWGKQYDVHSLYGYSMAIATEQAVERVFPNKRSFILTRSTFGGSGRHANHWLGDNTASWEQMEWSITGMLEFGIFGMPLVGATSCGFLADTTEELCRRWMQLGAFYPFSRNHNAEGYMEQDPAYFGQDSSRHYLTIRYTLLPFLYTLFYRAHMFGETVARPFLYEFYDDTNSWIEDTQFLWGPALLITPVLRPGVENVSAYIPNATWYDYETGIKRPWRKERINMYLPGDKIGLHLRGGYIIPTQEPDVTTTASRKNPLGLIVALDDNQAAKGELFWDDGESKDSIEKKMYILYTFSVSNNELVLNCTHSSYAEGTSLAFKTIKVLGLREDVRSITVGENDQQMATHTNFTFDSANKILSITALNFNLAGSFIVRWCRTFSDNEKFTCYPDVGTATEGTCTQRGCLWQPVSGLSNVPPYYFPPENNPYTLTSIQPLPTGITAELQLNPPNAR
T1 sequence (P23739 1014-1841 limits assumed): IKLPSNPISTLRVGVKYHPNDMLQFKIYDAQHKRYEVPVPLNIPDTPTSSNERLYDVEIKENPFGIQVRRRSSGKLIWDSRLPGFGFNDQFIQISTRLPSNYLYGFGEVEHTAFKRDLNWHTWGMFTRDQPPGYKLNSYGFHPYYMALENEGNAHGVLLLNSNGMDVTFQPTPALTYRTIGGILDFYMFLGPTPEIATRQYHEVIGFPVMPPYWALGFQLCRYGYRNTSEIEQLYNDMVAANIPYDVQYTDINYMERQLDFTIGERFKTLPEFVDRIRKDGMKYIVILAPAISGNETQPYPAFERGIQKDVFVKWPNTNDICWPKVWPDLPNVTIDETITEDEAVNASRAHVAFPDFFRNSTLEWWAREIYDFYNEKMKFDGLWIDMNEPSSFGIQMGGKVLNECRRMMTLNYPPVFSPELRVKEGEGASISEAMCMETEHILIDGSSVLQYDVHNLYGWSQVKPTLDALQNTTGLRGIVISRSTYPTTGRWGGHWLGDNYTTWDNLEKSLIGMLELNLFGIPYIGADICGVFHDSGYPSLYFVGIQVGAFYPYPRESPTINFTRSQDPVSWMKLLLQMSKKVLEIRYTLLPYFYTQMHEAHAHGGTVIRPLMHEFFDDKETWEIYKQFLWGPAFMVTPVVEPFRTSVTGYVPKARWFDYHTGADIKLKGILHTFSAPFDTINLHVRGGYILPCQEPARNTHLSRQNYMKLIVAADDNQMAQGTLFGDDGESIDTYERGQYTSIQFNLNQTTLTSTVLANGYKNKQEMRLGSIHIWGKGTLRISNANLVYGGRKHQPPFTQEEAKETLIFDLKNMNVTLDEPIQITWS
Alpha-glucosidase MAL12, sequence (P53341 whole entry): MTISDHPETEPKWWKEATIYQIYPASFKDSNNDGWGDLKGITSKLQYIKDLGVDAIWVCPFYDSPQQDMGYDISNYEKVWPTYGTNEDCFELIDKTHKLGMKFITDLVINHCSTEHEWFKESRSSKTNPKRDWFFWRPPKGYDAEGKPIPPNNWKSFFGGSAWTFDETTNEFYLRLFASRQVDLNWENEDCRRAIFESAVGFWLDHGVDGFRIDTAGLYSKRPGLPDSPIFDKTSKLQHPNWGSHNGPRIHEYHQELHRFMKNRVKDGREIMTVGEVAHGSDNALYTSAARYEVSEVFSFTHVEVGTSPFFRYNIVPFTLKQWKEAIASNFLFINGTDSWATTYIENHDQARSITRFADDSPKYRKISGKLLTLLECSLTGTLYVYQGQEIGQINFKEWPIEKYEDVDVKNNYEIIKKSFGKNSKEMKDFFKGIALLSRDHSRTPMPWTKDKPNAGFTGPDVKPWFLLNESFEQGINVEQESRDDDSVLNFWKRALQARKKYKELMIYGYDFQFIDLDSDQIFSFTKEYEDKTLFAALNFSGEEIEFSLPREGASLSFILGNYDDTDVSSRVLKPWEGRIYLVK

## COc1ccc(C(=O)NC[C@@H]2O[C@H](CO)[C@@H](O)[C@H](O)[C@H]2O)c(OC)c1
[1]
  pIC50: < 2.70
Alpha-glucosidase MAL12
  pIC50: 2.73

## COc1ccccc1C(=O)NC[C@@H]1O[C@H](CO)[C@@H](O)[C@H](O)[C@H]1O
[1]
  pIC50: 2.96
Alpha-glucosidase MAL12
  pIC50: 3.33
[2]
  pIC50: 3.14

## O=C(/C=C/c1ccccc1)NC[C@@H]1O[C@H](CO)[C@@H](O)[C@H](O)[C@H]1O
[1]
  pIC50: 3.50
Alpha-glucosidase MAL12
  pIC50: 5.64

## OC[C@H]1O[C@@H](CNCc2ccc(Cl)c(Cl)c2)[C@H](O)[C@@H](O)[C@@H]1O
[1]
  pIC50: 3.84
Alpha-glucosidase MAL12
  pIC50: 3.21
[2]
  pIC50: 3.65

## OC[C@H]1O[C@@H](CNCc2ccccc2)[C@H](O)[C@@H](O)[C@@H]1O
[1]
  pIC50: 3.57
Alpha-glucosidase MAL12
  pIC50: 4.41
[2]
  pIC50: 2.88

## CC(=O)Oc1ccc(C(=O)NC[C@@H]2O[C@H](CO)[C@@H](O)[C@H](O)[C@H]2O)cc1
[1]
  pIC50: 3.79
Alpha-glucosidase MAL12
  pIC50: 4.02
[2]
  pIC50: 3.78

## COc1cc(/C=C/C(=O)NC[C@@H]2O[C@H](CO)[C@@H](O)[C@H](O)[C@H]2O)ccc1O
[1]
  pIC50: 3.60
Alpha-glucosidase MAL12
  pIC50: 3.99
[2]
  pIC50: 3.42

## Cc1ccc(S(=O)(=O)NC[C@@H]2O[C@H](CO)[C@@H](O)[C@H](O)[C@H]2O)cc1
[1]
  pIC50: 2.85
Alpha-glucosidase MAL12
  pIC50: 3.99
[2]
  pIC50: 3.32

## COc1ccc(CNC[C@@H]2O[C@H](CO)[C@@H](O)[C@H](O)[C@H]2O)c(OC)c1
[1]
  pIC50: 3.98
Alpha-glucosidase MAL12
  pIC50: 3.21
[2]
  pIC50: 3.80

## O=C(NC[C@@H]1O[C@H](CO)[C@@H](O)[C@H](O)[C@H]1O)c1cccc([N+](=O)[O-])c1
[1]
  pIC50: 3.42
Alpha-glucosidase MAL12
  pIC50: 3.55

## O=C(/C=C/c1ccc(O)cc1)NC[C@@H]1O[C@H](CO)[C@@H](O)[C@H](O)[C@H]1O
[1]
  pIC50: 3.39
Alpha-glucosidase MAL12
  pIC50: 5.25

## O=C(NC[C@@H]1O[C@H](CO)[C@@H](O)[C@H](O)[C@H]1O)c1ccccc1O
[1]
  pIC50: < 2.70
Alpha-glucosidase MAL12
  pIC50: 3.33
[2]
  pIC50: 2.99

## COc1ccc(CNC[C@@H]2O[C@H](CO)[C@@H](O)[C@H](O)[C@H]2O)cc1
[1]
  pIC50: 3.75
Alpha-glucosidase MAL12
  pIC50: 3.34
[2]
  pIC50: 3.51

## COc1ccc(C(C)NC[C@@H]2O[C@H](CO)[C@@H](O)[C@H](O)[C@H]2O)cc1O (stereo partly specified)
[1]
  pIC50: 3.97
Alpha-glucosidase MAL12
  pIC50: 3.73

## OC[C@H]1O[C@@H](CNCc2ccc(Cl)cc2Cl)[C@H](O)[C@@H](O)[C@@H]1O
[1]
  pIC50: 3.81
Alpha-glucosidase MAL12
  pIC50: 3.50

## O=C(NC[C@@H]1O[C@H](CO)[C@@H](O)[C@H](O)[C@H]1O)c1ccccc1
[1]
  pIC50: < 2.70
Alpha-glucosidase MAL12
  pIC50: 3.30
[2]
  pIC50: 3.07

## O=C(NC[C@@H]1O[C@H](CO)[C@@H](O)[C@H](O)[C@H]1O)c1ccc(Cl)cc1Cl
[1]
  pIC50: 3.00
Alpha-glucosidase MAL12
  pIC50: 3.33
[2]
  pIC50: 3.23

## OC[C@H]1O[C@@H](CNCc2ccccc2O)[C@H](O)[C@@H](O)[C@@H]1O
[1]
  pIC50: 3.74
Alpha-glucosidase MAL12
  pIC50: 3.81

## O=C(NC[C@@H]1O[C@H](CO)[C@@H](O)[C@H](O)[C@H]1O)c1ccco1
[1]
  pIC50: 3.11
Alpha-glucosidase MAL12
  pIC50: 3.27

## COc1ccc(C(=O)NC[C@@H]2O[C@H](CO)[C@@H](O)[C@H](O)[C@H]2O)cc1
[1]
  pIC50: 3.10
Alpha-glucosidase MAL12
  pIC50: 3.64
[2]
  pIC50: 3.08

## O=C(NC[C@@H]1O[C@H](CO)[C@@H](O)[C@H](O)[C@H]1O)c1ccc([N+](=O)[O-])cc1
[1]
  pIC50: 3.00
Alpha-glucosidase MAL12
  pIC50: 4.44
[2]
  pIC50: 3.07

## OC[C@H]1O[C@@H](CNCc2cccs2)[C@H](O)[C@@H](O)[C@@H]1O
[1]
  pIC50: 3.76
Alpha-glucosidase MAL12
  pIC50: 3.43
[2]
  pIC50: 3.49

## OC[C@H]1O[C@@H](CNCc2ccc(F)cc2)[C@H](O)[C@@H](O)[C@@H]1O
[1]
  pIC50: 3.52
Alpha-glucosidase MAL12
  pIC50: 3.94
[2]
  pIC50: 3.69

## CC(=O)Oc1cc(C(=O)NC[C@@H]2O[C@H](CO)[C@@H](O)[C@H](O)[C@H]2O)cc(OC(C)=O)c1OC(C)=O
[1]
  pIC50: 4.81
Alpha-glucosidase MAL12
  pIC50: 3.65
[2]
  pIC50: 5.11

## COc1cc(CNC[C@@H]2O[C@H](CO)[C@@H](O)[C@H](O)[C@H]2O)ccc1O
[1]
  pIC50: 3.73
Alpha-glucosidase MAL12
  pIC50: 3.42
[2]
  pIC50: 3.65

## O=C(NC[C@@H]1O[C@H](CO)[C@@H](O)[C@H](O)[C@H]1O)c1ccc(F)cc1
[1]
  pIC50: 3.39
Alpha-glucosidase MAL12
  pIC50: 2.82
[2]
  pIC50: 3.33

## O=C(NC[C@@H]1O[C@H](CO)[C@@H](O)[C@H](O)[C@H]1O)c1cccs1
[1]
  pIC50: < 2.70
Alpha-glucosidase MAL12
  pIC50: 3.49
[2]
  pIC50: 3.35

## CC(=O)Oc1ccc(/C=C/C(=O)NC[C@@H]2O[C@H](CO)[C@@H](O)[C@H](O)[C@H]2O)cc1
[1]
  pIC50: 3.81
Alpha-glucosidase MAL12
  pIC50: 3.85

## O=C(NC[C@@H]1O[C@H](CO)[C@@H](O)[C@H](O)[C@H]1O)c1ccc(O)cc1
[1]
  pIC50: 2.78
Alpha-glucosidase MAL12
  pIC50: 2.72
[2]
  pIC50: 3.12

## O=[N+]([O-])c1cccc(CNC[C@@H]2O[C@H](CO)[C@@H](O)[C@H](O)[C@H]2O)c1
[1]
  pIC50: 3.20
Alpha-glucosidase MAL12
  pIC50: 4.35
[2]
  pIC50: 3.15

## OC[C@H]1O[C@@H](CNCc2ccc(O)cc2)[C@H](O)[C@@H](O)[C@@H]1O
[1]
  pIC50: 3.91
Alpha-glucosidase MAL12
  pIC50: 3.83

## OC[C@H]1O[C@@H](CNC/C=C/c2ccccc2)[C@H](O)[C@@H](O)[C@@H]1O
[1]
  pIC50: 4.01
Alpha-glucosidase MAL12
  pIC50: 3.93

## COc1ccc(CNC[C@@H]2O[C@H](CO)[C@@H](O)[C@H](O)[C@H]2O)cc1O
[1]
  pIC50: 3.73
Alpha-glucosidase MAL12
  pIC50: 3.33
[2]
  pIC50: 3.39

## CC(=O)Oc1ccc(/C=C/C(=O)NC[C@@H]2O[C@H](CO)[C@@H](O)[C@H](O)[C@H]2O)cc1OC(C)=O
[1]
  pIC50: 4.98
[3]
  pKi: 4.77
Alpha-glucosidase MAL12
  pIC50: 3.45
